Assay type in all cases: biochemical
One assay has as its target EGFR (Homo sapiens, UniProt P00533). As to the kind of experiment: Kinase selectivity screening (example 14).
Another assay deals with T1, Akt1 (Homo sapiens, UniProt P31749).
T1 construct: purchased Upstate
The assay is described as follows: Akt1 kinase assay (Histone H1 substrate). To be noted: 200 μM ATP, read-out: AKT-1 IC50.

For a further assay, the target named is Tie2 (Homo sapiens, UniProt Q02763). The assay is described as follows: Kinase selectivity screening (example 14).
A further assay concerns the target IGF-IR (Homo sapiens, UniProt P08069). As to the kind of experiment: Kinase selectivity screening (example 14).
The target in a further assay is T2, GST-Chk1 enzyme (Homo sapiens, UniProt O14757).
T2 sequence (O14757 1-476): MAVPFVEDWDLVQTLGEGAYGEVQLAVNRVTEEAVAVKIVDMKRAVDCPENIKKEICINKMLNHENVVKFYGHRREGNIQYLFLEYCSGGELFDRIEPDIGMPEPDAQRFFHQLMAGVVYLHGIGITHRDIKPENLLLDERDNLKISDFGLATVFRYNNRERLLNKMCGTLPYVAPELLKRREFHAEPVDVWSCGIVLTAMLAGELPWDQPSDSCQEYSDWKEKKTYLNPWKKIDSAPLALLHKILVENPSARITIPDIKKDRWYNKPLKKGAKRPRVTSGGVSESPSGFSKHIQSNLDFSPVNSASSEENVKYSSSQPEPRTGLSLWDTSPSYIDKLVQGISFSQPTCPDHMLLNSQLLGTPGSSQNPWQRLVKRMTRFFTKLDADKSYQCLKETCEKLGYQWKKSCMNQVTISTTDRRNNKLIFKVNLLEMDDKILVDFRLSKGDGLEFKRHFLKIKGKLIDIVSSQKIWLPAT
As to the kind of experiment: Chk1 kinase assay (33P Chktide phosphorylation). To be noted: 0.01 mM ATP, 40 minutes at 30° C.; read-out: CHK-1 IC50.

For the next assay, the target named is FGFR4 (Homo sapiens, UniProt P22455). As to the kind of experiment: Kinase selectivity screening (example 14).
For another assay, the target named is Flt1 (Homo sapiens, UniProt P17948). The assay is described as follows: Kinase selectivity screening (example 14).
The next assay has as its target FGFR2 (Homo sapiens, UniProt P21802). As to the kind of experiment: Kinase selectivity screening (example 14).
For the next assay, the target named is T3, ITK (Homo sapiens, UniProt Q08881).
T3 sequence (Q08881 1-620): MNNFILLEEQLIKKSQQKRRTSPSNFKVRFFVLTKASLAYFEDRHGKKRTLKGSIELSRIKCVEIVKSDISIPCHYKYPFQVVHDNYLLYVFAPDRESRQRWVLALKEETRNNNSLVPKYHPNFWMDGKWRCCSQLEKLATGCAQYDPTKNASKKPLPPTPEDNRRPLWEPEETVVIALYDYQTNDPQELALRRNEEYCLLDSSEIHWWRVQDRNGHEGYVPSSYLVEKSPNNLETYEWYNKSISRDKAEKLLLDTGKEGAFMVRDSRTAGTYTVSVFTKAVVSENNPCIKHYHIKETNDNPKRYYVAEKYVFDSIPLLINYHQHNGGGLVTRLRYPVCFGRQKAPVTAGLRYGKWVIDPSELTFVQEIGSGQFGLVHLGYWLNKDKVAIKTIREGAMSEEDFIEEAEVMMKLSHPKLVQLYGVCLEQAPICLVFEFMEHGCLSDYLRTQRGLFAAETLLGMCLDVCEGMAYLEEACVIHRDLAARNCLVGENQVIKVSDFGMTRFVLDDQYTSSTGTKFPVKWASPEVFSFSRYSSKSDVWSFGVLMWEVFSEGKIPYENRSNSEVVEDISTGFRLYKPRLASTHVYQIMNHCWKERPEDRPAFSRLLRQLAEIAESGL
The assay is described as follows: Kinase selectivity screening (example 14).

The target of a further assay is PDGFRa (Homo sapiens, UniProt P16234). The assay is described as follows: Kinase selectivity screening (example 14).
In another assay the target is T4, PKA (Homo sapiens, UniProt P17612).
T4 construct: purchased Upstate
As to the kind of experiment: PKA kinase assay (Kemptide substrate). To be noted: 100 μM ATP.

Molecules are shown by their SMILES. pIC50: −log10 of the molar value. Some results are limits rather than exact numbers.

Usually pIC50 stands for −log10 of the IC50, conventionally taken in molar units.

FGFR2, sequence (P21802 22-821, species assumed): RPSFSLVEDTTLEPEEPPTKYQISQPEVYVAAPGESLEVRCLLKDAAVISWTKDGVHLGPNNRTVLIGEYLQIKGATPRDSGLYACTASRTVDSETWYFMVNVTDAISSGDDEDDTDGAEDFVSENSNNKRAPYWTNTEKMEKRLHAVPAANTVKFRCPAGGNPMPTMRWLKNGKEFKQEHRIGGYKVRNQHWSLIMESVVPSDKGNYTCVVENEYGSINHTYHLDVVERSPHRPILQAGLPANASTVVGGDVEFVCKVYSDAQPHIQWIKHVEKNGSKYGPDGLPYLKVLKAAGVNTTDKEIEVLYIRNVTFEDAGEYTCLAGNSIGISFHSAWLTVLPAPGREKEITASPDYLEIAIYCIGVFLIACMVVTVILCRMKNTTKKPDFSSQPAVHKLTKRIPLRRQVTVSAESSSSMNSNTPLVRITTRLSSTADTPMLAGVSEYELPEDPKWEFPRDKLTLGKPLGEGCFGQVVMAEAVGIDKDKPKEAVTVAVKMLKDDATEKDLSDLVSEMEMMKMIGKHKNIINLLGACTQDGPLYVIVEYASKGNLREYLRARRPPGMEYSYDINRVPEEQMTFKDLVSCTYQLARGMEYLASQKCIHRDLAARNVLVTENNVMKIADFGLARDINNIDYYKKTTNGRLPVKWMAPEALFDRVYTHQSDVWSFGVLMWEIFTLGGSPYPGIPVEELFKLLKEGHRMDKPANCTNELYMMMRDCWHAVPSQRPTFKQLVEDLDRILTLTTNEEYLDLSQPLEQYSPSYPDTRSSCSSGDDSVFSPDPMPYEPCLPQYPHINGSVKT
IGF-IR, sequence (P08069 31-1367): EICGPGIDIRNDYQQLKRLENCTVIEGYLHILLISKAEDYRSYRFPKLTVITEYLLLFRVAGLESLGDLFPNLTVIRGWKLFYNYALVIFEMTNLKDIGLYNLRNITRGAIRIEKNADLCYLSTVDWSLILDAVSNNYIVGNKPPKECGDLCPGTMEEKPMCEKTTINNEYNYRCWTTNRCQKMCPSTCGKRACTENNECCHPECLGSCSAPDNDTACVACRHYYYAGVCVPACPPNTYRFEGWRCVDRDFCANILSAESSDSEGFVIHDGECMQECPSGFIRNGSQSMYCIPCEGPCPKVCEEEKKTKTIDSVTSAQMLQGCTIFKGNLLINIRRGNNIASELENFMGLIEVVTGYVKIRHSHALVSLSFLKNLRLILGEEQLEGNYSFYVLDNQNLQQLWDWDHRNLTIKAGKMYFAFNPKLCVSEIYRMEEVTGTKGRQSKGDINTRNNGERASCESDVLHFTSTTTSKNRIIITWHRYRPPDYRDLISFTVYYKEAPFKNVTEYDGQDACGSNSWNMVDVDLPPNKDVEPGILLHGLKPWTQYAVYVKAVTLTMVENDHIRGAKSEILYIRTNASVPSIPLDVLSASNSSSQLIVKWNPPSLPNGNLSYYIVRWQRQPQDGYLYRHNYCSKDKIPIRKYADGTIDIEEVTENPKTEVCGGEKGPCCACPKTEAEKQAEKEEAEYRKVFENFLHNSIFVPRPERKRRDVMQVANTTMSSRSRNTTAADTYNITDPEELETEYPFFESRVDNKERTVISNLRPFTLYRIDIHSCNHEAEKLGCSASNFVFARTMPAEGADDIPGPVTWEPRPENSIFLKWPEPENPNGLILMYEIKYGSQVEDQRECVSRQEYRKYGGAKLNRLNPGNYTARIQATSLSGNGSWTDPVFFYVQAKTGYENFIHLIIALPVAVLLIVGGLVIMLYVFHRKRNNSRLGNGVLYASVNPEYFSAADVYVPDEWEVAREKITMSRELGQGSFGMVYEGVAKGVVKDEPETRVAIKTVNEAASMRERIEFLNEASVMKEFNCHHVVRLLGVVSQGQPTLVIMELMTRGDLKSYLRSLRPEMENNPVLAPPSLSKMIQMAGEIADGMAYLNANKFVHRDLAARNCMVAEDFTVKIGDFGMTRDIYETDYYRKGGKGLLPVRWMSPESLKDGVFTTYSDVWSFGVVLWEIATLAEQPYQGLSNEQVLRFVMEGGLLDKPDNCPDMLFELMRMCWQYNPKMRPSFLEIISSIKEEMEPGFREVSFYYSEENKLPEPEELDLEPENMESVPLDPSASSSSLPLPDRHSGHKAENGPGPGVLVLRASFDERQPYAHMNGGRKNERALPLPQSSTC
EGFR, sequence (P00533 25-1210): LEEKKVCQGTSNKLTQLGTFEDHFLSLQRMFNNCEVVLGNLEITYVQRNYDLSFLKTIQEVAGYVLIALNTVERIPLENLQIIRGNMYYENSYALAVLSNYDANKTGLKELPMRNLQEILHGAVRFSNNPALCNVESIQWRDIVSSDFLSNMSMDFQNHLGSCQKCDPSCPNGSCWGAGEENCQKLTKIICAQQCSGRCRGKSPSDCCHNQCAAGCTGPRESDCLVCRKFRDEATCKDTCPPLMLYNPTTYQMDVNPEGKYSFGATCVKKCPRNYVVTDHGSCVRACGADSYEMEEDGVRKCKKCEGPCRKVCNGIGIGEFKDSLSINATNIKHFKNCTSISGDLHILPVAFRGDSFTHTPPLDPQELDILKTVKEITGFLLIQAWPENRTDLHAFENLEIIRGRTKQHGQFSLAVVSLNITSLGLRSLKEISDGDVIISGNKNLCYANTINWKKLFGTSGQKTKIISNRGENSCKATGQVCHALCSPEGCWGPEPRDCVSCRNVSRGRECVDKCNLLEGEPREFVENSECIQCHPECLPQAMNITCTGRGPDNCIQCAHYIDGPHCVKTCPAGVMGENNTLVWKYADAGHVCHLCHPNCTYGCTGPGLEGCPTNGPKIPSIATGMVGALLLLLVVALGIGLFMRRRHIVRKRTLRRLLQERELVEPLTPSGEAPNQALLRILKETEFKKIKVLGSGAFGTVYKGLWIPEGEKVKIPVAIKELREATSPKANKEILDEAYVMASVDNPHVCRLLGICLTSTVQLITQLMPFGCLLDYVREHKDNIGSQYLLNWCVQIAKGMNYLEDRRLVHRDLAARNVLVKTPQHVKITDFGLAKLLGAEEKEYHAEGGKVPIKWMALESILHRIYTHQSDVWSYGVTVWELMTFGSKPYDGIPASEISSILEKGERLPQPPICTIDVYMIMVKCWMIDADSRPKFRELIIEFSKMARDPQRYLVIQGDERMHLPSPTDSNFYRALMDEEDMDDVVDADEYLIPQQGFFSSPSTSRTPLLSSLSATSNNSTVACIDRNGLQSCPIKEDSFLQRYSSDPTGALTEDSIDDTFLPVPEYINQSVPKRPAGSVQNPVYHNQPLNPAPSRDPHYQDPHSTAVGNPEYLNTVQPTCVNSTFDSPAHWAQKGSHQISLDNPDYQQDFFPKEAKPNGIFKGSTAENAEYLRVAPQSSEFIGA
Tie2, sequence (Q02763 23-1124, species assumed): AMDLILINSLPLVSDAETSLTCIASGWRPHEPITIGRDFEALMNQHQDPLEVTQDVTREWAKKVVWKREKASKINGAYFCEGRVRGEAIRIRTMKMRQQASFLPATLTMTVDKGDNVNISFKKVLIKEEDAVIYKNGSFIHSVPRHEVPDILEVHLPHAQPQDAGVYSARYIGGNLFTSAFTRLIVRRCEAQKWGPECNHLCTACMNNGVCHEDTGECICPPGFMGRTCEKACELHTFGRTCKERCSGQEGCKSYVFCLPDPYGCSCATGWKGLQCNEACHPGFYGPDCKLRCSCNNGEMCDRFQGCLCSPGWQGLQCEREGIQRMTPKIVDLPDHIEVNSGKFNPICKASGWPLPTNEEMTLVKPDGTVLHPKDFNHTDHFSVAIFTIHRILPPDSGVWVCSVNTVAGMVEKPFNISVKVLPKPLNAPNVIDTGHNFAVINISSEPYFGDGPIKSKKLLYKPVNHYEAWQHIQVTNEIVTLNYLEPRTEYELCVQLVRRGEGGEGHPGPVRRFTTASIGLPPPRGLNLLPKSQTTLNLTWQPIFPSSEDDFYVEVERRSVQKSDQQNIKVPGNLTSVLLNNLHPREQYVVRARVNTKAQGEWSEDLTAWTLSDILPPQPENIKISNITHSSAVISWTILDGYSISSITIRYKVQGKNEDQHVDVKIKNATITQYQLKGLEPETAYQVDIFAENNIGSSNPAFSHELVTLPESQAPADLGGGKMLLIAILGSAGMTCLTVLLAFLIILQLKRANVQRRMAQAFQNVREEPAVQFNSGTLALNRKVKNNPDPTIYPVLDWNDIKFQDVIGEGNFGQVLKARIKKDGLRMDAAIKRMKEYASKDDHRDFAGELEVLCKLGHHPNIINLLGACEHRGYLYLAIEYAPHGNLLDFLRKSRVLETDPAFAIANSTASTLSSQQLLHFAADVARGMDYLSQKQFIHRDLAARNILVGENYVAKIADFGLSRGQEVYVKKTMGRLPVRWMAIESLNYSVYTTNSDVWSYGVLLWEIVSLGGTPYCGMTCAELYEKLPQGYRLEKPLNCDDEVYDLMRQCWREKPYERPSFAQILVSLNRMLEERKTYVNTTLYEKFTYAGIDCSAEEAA
T1 sequence (P31749 whole entry, species assumed): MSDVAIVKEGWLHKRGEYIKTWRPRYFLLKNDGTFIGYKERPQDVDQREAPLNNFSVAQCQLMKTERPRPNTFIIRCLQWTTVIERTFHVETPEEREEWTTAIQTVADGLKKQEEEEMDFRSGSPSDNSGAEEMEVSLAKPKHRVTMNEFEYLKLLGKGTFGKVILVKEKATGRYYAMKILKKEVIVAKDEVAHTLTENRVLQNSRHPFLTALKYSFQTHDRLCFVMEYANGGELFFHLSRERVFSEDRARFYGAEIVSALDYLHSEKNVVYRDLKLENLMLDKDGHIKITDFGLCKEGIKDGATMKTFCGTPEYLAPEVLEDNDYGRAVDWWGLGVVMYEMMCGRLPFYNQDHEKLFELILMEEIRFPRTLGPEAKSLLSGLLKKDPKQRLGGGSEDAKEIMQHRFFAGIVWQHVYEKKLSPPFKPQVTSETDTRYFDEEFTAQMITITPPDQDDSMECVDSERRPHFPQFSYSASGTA

Take `Cc1[nH]nc(-c2nc3cc4cn[nH]c4cc3[nH]2)c1C(=O)NC1CCNCC1` [Example 14]: on EGFR, the “selectivity versus EGFR” value is listed as over 20 fold. The pIC50 at Akt1 is 4.57; on GST-Chk1 enzyme, 8.22; against PKA it was 5.14. Also, the “selectivity versus Tie2” value on Tie2 is given as over 20 fold. Moreover, the “selectivity versus IGF-IR” value at IGF-IR was over 20 fold. For the same compound, at FGFR4, the “selectivity versus FGFR4” value is over 20 fold. The “selectivity versus Flt1” value on Flt1 is given as over 20 fold. Besides, the “selectivity versus FGFR2” value on FGFR2 is listed as over 20 fold. Further, the “selectivity versus ITK” value on ITK was over 20 fold. Besides, the “selectivity versus PDGFRa” value on PDGFRa is recorded as over 20 fold.

(Values after US20090131470A1, “PYRAZOLE-SUBSTITUTED BENZIMIDAZOLE DERIVATIVES FOR USE IN THE TREATMENT OF CANCER AND AUTOIMMUNE DISORDERS” (priority 2005, published 2009).)
